# Laboratory results taken from US20250082674A1, “METHODS OF TREATING COPPER METABOLISM-ASSOCIATED DISEASES OR DISORDERS” (priority 2021, published 2025).
# Read-outs that look alike come from different tables or passages of the source.
# Key:
# copper [1] = conditions: Study 301, FIG. 23, versus SoC chelator therapy
# Text: Biomarkers and Biobank Samples: Blood samples were collected to measure plasma Cp and CpC. Urine samples were collected for analysis of urine copper and molybdenum. Additional biomarker or biobank samples were collected for the analysis of molybdenum and/or copper species associated with treatment.
# copper [2] = system: copper
# Experimental: Study 204 is registered with ClinicalTrials.gov, number NCT04573309, and is described in Example 1 of U.S. Provisional Patent Application No. 63/237,120, filed Aug. 25, 2021, and incorporated by reference herein. […] The participants remained on a Cu-controlled diet, and Cu and Mo balance were measured on all intake (i.e., investigational agent, food and fluids) and all output (urine and feces). The Cu and Mo concentration of each sample was determined by inductively coupled plasma mass spectrometry (ICP-MS). Copper and Mo content of all intake and output was calculated based on the volume or weight of intake and output and the concentration of representative samples.
# Collection periods for feces and urine varied in duration from 3 to 15 days to support assessment of both Cu and Mo balance before and at steady state for both 15 mg and 30 mg. Equilibration periods on Cu/Mo-controlled diets were a minimum of 48 hours. Copper balance was calculated as the mean daily Cu balance over each of the 4 collection periods. The interpretation of Cu balance was based on the criteria previously established when undertaking Cu balance studies with zinc treatment.
# These participants had all intake (food and drink) and output (urine and feces) collected from Day-4 through Day-1 (baseline), from Day 1 through Day 8, and Day 25 through Day 39.
# [3] = Study 301: adverse events in participants who switched from SoC to BC-TTM in the Extension Period; conditions: SoC Weeks 0-48 (N = 70), BC-TTM Weeks 49-96 (N = 61)
# [4] = Study 204, Days 1-8 (Accumulation 15 mg/day)
# [5] = Study 204, Days 25-28 (Steady State 15 mg/day)
# [6] = Study 204, Days 31-35 (Accumulation 30 mg/day)
# [7] = Study 204, Days 36-39 (Steady State 30 mg/day)
substance,measurement,setting,value
Bis-choline tetrathiomolybdate [BC-TTM],24-hour urinary copper,copper [1],lower
same,"Daily Net Copper Balance, Change from Baseline, Median (IQR)",copper [2]; [4],−0.4291 (0.2176) mg
same,"Daily Net Copper Balance, Value, Mean (SD)",copper [2]; [4],0.7654 (0.3538) mg
same,"Daily Net Copper Balance, Value, Median (IQR)",copper [2]; [4],0.6678 (0.6871) mg
same,"Increase from Baseline in Average Daily Fecal Copper Excretion, Mean (SD)",copper [2]; [4],0.3278 (0.319) mg
same,"Increase from Baseline in Average Daily Urine Copper Excretion, Mean (SD)",copper [2]; [4],−0.0108 (0.01119) mg
same,"Daily Net Copper Balance, Change from Baseline, Median (IQR)",copper [2]; [5],−0.1459 (1.0434) mg
same,"Daily Net Copper Balance, Value, Mean (SD)",copper [2]; [5],0.7638 (0.9138) mg
same,"Daily Net Copper Balance, Value, Median (IQR)",copper [2]; [5],1.1434 (1.7052) mg
same,"Increase from Baseline in Average Daily Fecal Copper Excretion, Mean (SD)",copper [2]; [5],0.4931 (0.4955) mg
same,"Increase from Baseline in Average Daily Urine Copper Excretion, Mean (SD)",copper [2]; [5],0.1042 (0.08556) mg
same,"Daily Net Copper Balance, Change from Baseline, Median (IQR)",copper [2]; [6],−0.3707 (0.1093) mg
same,"Daily Net Copper Balance, Value, Mean (SD)",copper [2]; [6],0.8577 (0.3427) mg
same,"Daily Net Copper Balance, Value, Median (IQR)",copper [2]; [6],0.8312 (0.6838) mg
same,"Increase from Baseline in Average Daily Fecal Copper Excretion, Mean (SD)",copper [2]; [6],0.3879 (0.4193) mg
same,"Increase from Baseline in Average Daily Urine Copper Excretion, Mean (SD)",copper [2]; [6],0.0744 (0.05427) mg
same,"Daily Net Copper Balance, Change from Baseline, Median (IQR)",copper [2]; [7],−0.4225 (0.2275) mg
same,"Daily Net Copper Balance, Value, Mean (SD)",copper [2]; [7],0.8582 (0.2565) mg
same,"Daily Net Copper Balance, Value, Median (IQR)",copper [2]; [7],0.7986 (0.5024) mg
same,"Increase from Baseline in Average Daily Fecal Copper Excretion, Mean (SD)",copper [2]; [7],0.0899 (0.2021) mg
same,"Increase from Baseline in Average Daily Urine Copper Excretion, Mean (SD)",copper [2]; [7],0.1042 (0.04328) mg
same,"Daily Net Copper Balance, Change from Baseline, Mean (SD)","copper [2]; Study 204, Table 10, Days 1-8 (Accumulation 15 mg/day)",−0.4848 (0.119) mg
same,"Daily Net Copper Balance, Change from Baseline, Mean (SD)","copper [2]; Study 204, Table 10, Days 25-28 (Steady State 15 mg/day)",−0.4865 (0.5993) mg
same,"Daily Net Copper Balance, Change from Baseline, Mean (SD)","copper [2]; Study 204, Table 10, Days 31-35 (Accumulation 30 mg/day)",−0.3925 (0.05781) mg
same,"Daily Net Copper Balance, Change from Baseline, Mean (SD)","copper [2]; Study 204, Table 10, Days 36-39 (Steady State 30 mg/day)",−0.3921 (0.1168) mg
same,"Decrease from Baseline in Average Daily Net Copper Balance, Change from Baseline Mean (SD)","copper [2]; Study 204, Table 13, Days 1-8 (Accumulation 15 mg/day)",−0.4848 (0.119) mg
same,"Decrease from Baseline in Average Daily Net Copper Balance, Change from Baseline Mean (SD)","copper [2]; Study 204, Table 13, Days 1-39",−0.448 (0.1469) mg
same,"Decrease from Baseline in Average Daily Net Copper Balance, Change from Baseline Mean (SD)","copper [2]; Study 204, Table 13, Days 25-28 (Steady State 15 mg/day)",−0.6381 (0.7673) mg
same,"Decrease from Baseline in Average Daily Net Copper Balance, Change from Baseline Mean (SD)","copper [2]; Study 204, Table 13, Days 31-35 (Accumulation 30 mg/day)",−0.3925 (0.05781) mg
same,"Decrease from Baseline in Average Daily Net Copper Balance, Change from Baseline Mean (SD)","copper [2]; Study 204, Table 13, Days 36-39 (Steady State 30 mg/day)",−0.2765 (0.3138) mg
same,"Musculoskeletal and connective tissue disorders, E events",[3],7
same,"Musculoskeletal and connective tissue disorders, N participants",[3],7
same,"Musculoskeletal and connective tissue disorders, participants (%)",[3],11.5%
